Like-named read-outs stand apart in the source and are kept apart here.
Columns and labels:
[1] = tested on: D545701-14 multi protease inhibitor resistant virus; experiment: Anti-viral activity against resistant virus D545701-14 in MT4 cells; type: cell-based, HIV-1
HIV-1 (strain IIIB) = experiment: Antiviral activity assay in MT4 cells (propidium iodide based); type: cell-based; conditions: wild type HIV-1 virus, MT4 cells, read-out: Wildtype virus - IC50
Outline: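 MT4 cells infected with HIV-1 IIIB (MOI 100×TCID50, 1 hr, 37°C), diluted 6-fold into wells with serially diluted compound, incubated 5 days. Cells lysed with Nonidet-40; DNA content per well estimated by propidium iodide staining as the viability read-out, with mock-infected controls.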

[2] = tested on: EP13 multi protease inhibitor resistant virus; experiment: Anti-viral activity against resistant virus EP13 in MT4 cells; type: cell-based, HIV-1
Outline: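 MT4 cells infected for 1 h at 37 °C, MOI 100×TCID50, then diluted 6-fold onto pre-diluted compound and cultured 5 days (5% CO2). Viable-cell DNA content estimated by propidium iodide. EP13 carries protease mutations M46I, L63P, A71V, V82F/L, I84V, no RT mutations.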

[3] = Human immunodeficiency virus 1, MT4, read-out: D545701-14 mutant - IC50, D545701-14 multi protease inhibitor resistant virus, MT4 cells
[4] = Human immunodeficiency virus 1, IIIB
[5] = Human immunodeficiency virus 1, MT4, read-out: EP13 mutant IC50, EP13 multi protease inhibitor resistant virus, MT4 cells
[6] = Human immunodeficiency virus 1, MT4, read-out: D545701-14 mutant - IC50
[7] = Human immunodeficiency virus 1, MT4, read-out: EP13 mutant IC50
[8] = D545701-14 multi protease inhibitor resistant virus, MT4 cells, read-out: D545701-14 mutant - IC50
[9] = EP13 multi protease inhibitor resistant virus, MT4 cells, read-out: EP13 mutant IC50

Compound	IC50 [1, 3] [nM]	IC50 (HIV-1 (strain IIIB); [4]) [nM]	IC50 [2, 5] [nM]	IC50 [1, 6] [nM]	IC50 [2, 7] [nM]	IC50 [1, 8] [nM]	IC50 (HIV-1 (strain IIIB)) [nM]	IC50 [2, 9] [nM]
CC(C)CN(C[C@@H](O)[C@H](Cc1ccc(OCc2cccc(C#N)c2)cc1)NC(=O)O[C@H]1CO[C@H]2OCC[C@H]21)S(=O)(=O)c1ccc2c(c1)OCCO2 [Compound 338, (3R,3aS,6aR)-hexahydrofuro[2,3-b]furan-3-yl (1S,2R)-1-{4-[(3-cyanobenzyl)oxy]benzyl}-3-[(2,3-dihydro-1,4-benzodioxin-6-ylsulfonyl)(isobutyl)amino]-2-hydroxypropylcarbamate]	1 to 10	1 to 10	1 to 10					
CC(C)CN(C[C@@H](O)[C@H](Cc1ccc(OCc2cccc(C#N)c2)cc1)NC(=O)O[C@H]1CO[C@H]2OCC[C@H]21)S(=O)(=O)c1ccc2c(c1)OC(F)(F)O2 [Compound 342, (3R,3aS,6aR)-hexahydrofuro[2,3-b]furan-3-yl (1S,2R)-1-{4-[(3-cyanobenzyl)oxy]benzyl}-3-[[(2,2-difluoro-1,3-benzodioxol-5-yl)sulfonyl](isobutyl)amino]-2-hydroxypropylcarbamate]	10 to 100	10 to 100	10 to 100					
CC(=O)Oc1ccc(S(=O)(=O)N(CC(C)C)C[C@@H](O)[C@H](Cc2ccc(OCc3csc(C)n3)cc2)NC(=O)O[C@H]2CO[C@H]3OCC[C@H]32)cc1C [Compound 347, 4-{[((2R,3S)-3-({[(3R,3aS,6aR)-hexahydrofuro[2,3-b]furan-3-yloxy]carbonyl}amino)-2-hydroxy-4-{4-[(2-methyl-1,3-thiazol-4-yl)methoxy]phenyl}butyl)(isobutyl)amino]sulfonyl}-2-methylphenyl acetate]	1 to 10	1 to 10	1 to 10					
Cc1nc(COc2ccc(C[C@H](NC(=O)O[C@H]3CO[C@H]4OCC[C@H]43)[C@H](O)CN(CC(C)C)S(=O)(=O)c3ccc(O)c(C)c3)cc2)cs1 [Compound 348, (3R,3aS,6aR)-hexahydrofuro[2,3-b]furan-3-yl (1S,2R)-2-hydroxy-3-[[(4-hydroxy-3-methylphenyl)sulfonyl](isobutyl)amino]-1-{4-[(2-methyl-1,3-thiazol-4-yl)methoxy]benzyl}propylcarbamate]	1 to 10	1 to 10	1 to 10					
CC(C)CN(C[C@@H](O)[C@H](Cc1ccc(OS(=O)(=O)c2ccc3c(c2)OCO3)cc1)NC(=O)O[C@H]1CO[C@H]2OCC[C@H]21)S(=O)(=O)c1ccc2c(c1)OCO2 [Compound 349, 4-{(2S,3R)-2-({[(3R,3aS,6aR)-hexahydrofuro[2,3-b]furan-3-yloxy]carbonyl}amino)-4-[(1,3-benzodioxol-5-ylsulfonyl)(isobutyl)amino]-3-hydroxybutyl}phenyl 1,3-benzodioxole-5-sulfonate]	1 to 10	1 to 10	1 to 10					
CC(C)CN(C[C@@H](O)[C@H](Cc1ccc(OCCc2ccccc2)cc1)NC(=O)O[C@H]1CO[C@H]2OCC[C@H]21)S(=O)(=O)c1ccc2c(c1)OCO2 [Compound 352, (3R,3aS,6aR)hexahydrofuro[2,3-b]furan-3-yl (1S,2R)-3[(1,3-benzodioxol-5-ylsulfonyl)(isobutyl)amino]-2-hydroxy-1-[4-(phenethyloxy)benzyl]propylcarbamate]	1 to 10	< 1	< 1					
CC(=O)NCCOc1ccc(C[C@H](NC(=O)O[C@H]2CO[C@H]3OCC[C@H]32)[C@H](O)CN(CC(C)C)S(=O)(=O)c2ccc3c(c2)OCO3)cc1 [Compound 355, (3R,3aS,6aR)hexahydrofuro[2,3-b]furan-3-yl (1S,2R)-3-[(1,3-benzodioxol-5-ylsulfonyl)(isobutyl)amino]-2-hydroxy-1-[4-(2-[acetylamino]ethoxy)benzyl]propylcarbamate]	10 to 100	10 to 100	10 to 100					
COC(=O)NCCOc1ccc(C[C@H](NC(=O)O[C@H]2CO[C@H]3OCC[C@H]32)[C@H](O)CN(CC(C)C)S(=O)(=O)c2ccc3c(c2)OCO3)cc1 [Compound 356, (3R,3aS,6aR)hexahydrofuro[2,3-b]furan-3-yl (1S,2R)-3-[(1,3-benzodioxol-5-ylsulfonyl)(isobutyl)amino]-2-hydroxy-1-[4-(2-[(methoxycarbonyl)amino]ethoxy)benzyl]propylcarbamate]		1 to 10		< 1	1 to 10			
CC(C)CN(C[C@@H](O)[C@H](Cc1ccc(OCCNS(C)(=O)=O)cc1)NC(=O)O[C@H]1CO[C@H]2OCC[C@H]21)S(=O)(=O)c1ccc2c(c1)OCO2 [Compound 357, (3R,3aS,6aR)hexahydrofuro[2,3-b]furan-3-yl (1S,2R)-3-[(1,3-benzodioxol-5-ylsulfonyl)(isobutyl)amino]-2-hydroxy-1-[4-(2-[(methylsulfonyl)amino]ethoxy)benzyl]propylcarbamate]		10 to 100		10 to 100	1 to 10			
CNC(=O)NCCOc1ccc(C[C@H](NC(=O)O[C@H]2CO[C@H]3OCC[C@H]32)[C@H](O)CN(CC(C)C)S(=O)(=O)c2ccc3c(c2)OCO3)cc1 [Compound 358, (3R,3aS,6aR)hexahydrofuro[2,3-b]furan-3-yl (1S,2R)-3-[(1,3-benzodioxol-5-ylsulfonyl)(isobutyl)amino]-2-hydroxy-1-[4-(2-[([methylamino]carbonyl)amino]ethoxy)benzyl]propylcarbamate]		10 to 100		10 to 100	10 to 100			
CC(C)CN(C[C@@H](O)[C@H](Cc1ccc(OCCN(C)C)cc1)NC(=O)O[C@H]1CO[C@H]2OCC[C@H]21)S(=O)(=O)c1ccc2c(c1)OCO2 [Compound 359, (3R,3aS,6aR)hexahydrofuro[2,3-b]furan-3-yl (1S,2R)-3-[(1,3-benzodioxol-5-ylsulfonyl)(isobutyl)amino]-2-hydroxy-1-[4-(2-[dimethylamino]ethoxy)benzyl]propylcarbamate]	10 to 100	10 to 100	10 to 100					
CNC(=O)OCCCC(C)(C)CN(C[C@@H](O)[C@H](Cc1ccc(OCc2ccccc2)cc1)NC(=O)OC1CO[C@H]2OCC[C@@H]12)S(=O)(=O)c1ccc2c(c1)OCO2 (stereo partly drawn) [Compound 361]	10 to 100	1 to 10	10 to 100					
CC(C)CN(C[C@@H](O)[C@H](Cc1ccc(OCc2ccccc2)cc1)NC(=O)O[C@H]1CO[C@H]2OCC[C@H]21)S(=O)(=O)c1ccc2c(c1)OCCO2 [Compound 365]	1 to 10	1 to 10	1 to 10					
CC(C)CN(C[C@@H](O)[C@H](Cc1ccc(OCc2cccc(C#N)c2)cc1)NC(=O)O[C@H]1CO[C@H]2OCC[C@H]21)S(=O)(=O)c1ccc2c(c1)OCO2 [Compound 367, (3R,3aS,6aR)-Hexahydrofuro[2,3-b]furan-3-yl-N (1S,2R)-1-[4-(3-cyanobenzyloxy)-benzyl]-3-i-butyl-[(3,4-methylenedioxyphenyl)sulfonyl]-amino-2-hydroxypropyl-carbamate]						1 to 10	< 1	< 1
Cc1nc(COc2ccc(C[C@H](NC(=O)O[C@H]3CO[C@H]4OCC[C@H]43)[C@H](O)CN(CC(C)C)S(=O)(=O)c3ccc4c(c3)OCO4)cc2)cs1 [Compound 368]						1 to 10	< 1	< 1
CC(C)CN(C[C@@H](O)[C@H](Cc1ccc(OCc2noc(C(C)(C)C)n2)cc1)NC(=O)O[C@H]1CO[C@H]2OCC[C@H]21)S(=O)(=O)c1ccc2c(c1)OCO2 [Compound 370]	1 to 10	< 1	1 to 10					

From patent publication US8455497B2, “Inhibitors of aspartyl protease” (Vertex Pharmaceuticals Incorporated, priority 1999, dated 2013)
